Results from PMC4707675 (ACS infectious diseases, 2015).
Where two headings read alike, the source gives them in different places.

Assays:
[1] = test system: DHFR-overexpressing strain of Mtb (DHFR-oe); assay type: cell-based, Mycobacterium tuberculosis
[2] = test system: DHFR-overexpressing strain of Mtb (DHFR-oe); conditions: ref Nixon et al.[15]; cited from earlier work

Compound | MIC90 DHFR-oe [1] | MIC90 DHFR-oe [2]
N#Cc1ccc(Cn2ccc3c4c(N)nc(N)nc4ccc32)cc1 [PQD-1] | >2 µM | –
COc1cc(NCc2ccc3nc(N)nc(N)c3c2C)cc(OC)c1OC [Trimetrexate] | – | >100 µM
CC1(C)N=C(N)N=C(N)N1OCCCOc1cc(Cl)c(Cl)cc1Cl [WR99210] | 15 to 30 µM | –
